Measurements as given in patent publication US10617690B2 (priority 2015, dated 2020).

Tests used:
JAK2 protein kinase = JAK2 protein kinase (Homo sapiens, UniProt O60674); assay: biochemical; conditions: 12 uM ATP, 60 min;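 also: recombinant human JAK2 with ULight-labelled JAK-1(Tyr1023) peptide substrate, phosphorylation detected by TR-FRET using Eu-labelled anti-phosphotyrosine antibody, 1% DMSO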
From the text: (§1) Recombinant humanized JAK1, JAK2 and JAK3 protease were all purchased from Life technology. LANCE Ultra ULight™-JAK-1(Tyr1023) peptide and LANCE Eu-W1024 Anti-phosphotyrosine (PT66) were both purchased from PerkinElmer. Envision (PerkinElmer) was used to read a plate.
(§2) The reading was converted into a suppression ratio as follow equation: (%)=(Min−Ratio)/(Max−Min)*100%.

JAK1 protein kinase = JAK1 protein kinase (Homo sapiens, UniProt P23458); assay: biochemical; conditions: 38 uM ATP, 90 min
Experimental: In Vitro Activity Test of Jak1, Jak 2 and Jak 3 Kinase
Recombinant humanized JAK1, JAK2 and JAK3 […] were all purchased from Life technology. LANCE Ultra ULight™-JAK-1(Tyr1023) peptide and LANCE Eu-W1024 Anti-phosphotyrosine (PT66) were both purchased from PerkinElmer. Envision (PerkinElmer) was used to read a plate.
Three dilution of a test compound was prepared, and 11 final concentrations were obtained: 10 uM to 0.17 nM. Each concentration had two repeat wells. The content of DMSO in a detection reaction was 1%.
2 nM JAK1 protein kinase, 50 nM LANCE Ultra ULight™-JAK-1(Tyr1023) peptide, 38 uM ATP, 50 mM HEPES (pH7.5), 10 mM MgCl2, 1 mM EGTA, 2 mM DTT, and 0.01% BRIJ-35. Detection plate was White Proxiplate 384-Plus plate (PerkinElmer), the reaction was conducted for 90 min at room temperature, and reaction system was 10 ul.
10 ul detection reagent was added into the reaction plate, wherein the final concentration of LANCE Eu-W1024 Anti-phosphotyrosine (PT66) was 2 nM, the final concentration of EDTA was 10 mM, incubation was conducted for 60 min at room temperature, and the plate was read by the Envision.
The reading was converted into a suppression ratio as follow equation: (%)=([…])/(Max−Min)*100%. IC50 data was detected by 4 parametric curve fitting (Model 205 in XLFIT5, iDBS), see Table 1.

JAK3 = target: T1, JAK3 (Homo sapiens, UniProt P52333); assay: In vitro activity test of JAK3 kinase (LANCE Ultra TR-FRET); format: biochemical;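 also: recombinant human JAK3 phosphorylating ULight-JAK-1(Tyr1023) peptide at 4 µM ATP, with 1% DMSO, detected by Eu-anti-phosphotyrosine TR-FRET on Envision and converted to percent inhibition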
T1 construct: purchased Life technology
T1 sequence (P52333 1-1124): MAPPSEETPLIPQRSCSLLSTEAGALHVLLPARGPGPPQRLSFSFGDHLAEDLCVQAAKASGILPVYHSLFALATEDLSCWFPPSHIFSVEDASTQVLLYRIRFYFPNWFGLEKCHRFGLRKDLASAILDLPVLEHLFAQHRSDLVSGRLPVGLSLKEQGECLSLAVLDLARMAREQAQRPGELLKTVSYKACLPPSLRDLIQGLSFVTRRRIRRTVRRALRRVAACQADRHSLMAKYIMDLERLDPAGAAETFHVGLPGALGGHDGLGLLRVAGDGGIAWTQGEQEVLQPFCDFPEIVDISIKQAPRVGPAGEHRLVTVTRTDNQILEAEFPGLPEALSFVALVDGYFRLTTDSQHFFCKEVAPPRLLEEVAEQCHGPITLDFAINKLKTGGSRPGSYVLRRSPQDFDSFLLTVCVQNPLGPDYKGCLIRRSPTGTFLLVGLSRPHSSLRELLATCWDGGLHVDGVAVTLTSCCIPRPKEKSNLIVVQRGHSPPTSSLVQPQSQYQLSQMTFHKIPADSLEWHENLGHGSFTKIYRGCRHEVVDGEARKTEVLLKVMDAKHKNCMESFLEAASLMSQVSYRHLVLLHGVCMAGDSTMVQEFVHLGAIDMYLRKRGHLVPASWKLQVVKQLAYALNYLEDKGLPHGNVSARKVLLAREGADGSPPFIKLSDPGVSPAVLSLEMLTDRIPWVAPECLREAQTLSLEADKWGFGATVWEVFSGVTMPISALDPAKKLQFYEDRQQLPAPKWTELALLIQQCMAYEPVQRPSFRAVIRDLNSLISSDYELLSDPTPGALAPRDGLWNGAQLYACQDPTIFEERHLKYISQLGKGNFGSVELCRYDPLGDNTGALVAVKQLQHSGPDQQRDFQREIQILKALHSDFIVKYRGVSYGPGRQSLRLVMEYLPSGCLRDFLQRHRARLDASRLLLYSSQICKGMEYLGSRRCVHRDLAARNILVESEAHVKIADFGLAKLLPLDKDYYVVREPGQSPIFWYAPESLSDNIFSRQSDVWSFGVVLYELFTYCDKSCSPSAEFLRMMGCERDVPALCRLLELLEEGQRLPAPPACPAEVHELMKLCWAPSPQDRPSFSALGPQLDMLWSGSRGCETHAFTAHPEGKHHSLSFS
Experimental: as §1
0.05 nM protein kinase, 50 nM LANCE Ultra ULight™-JAK-1(Tyr1023) peptide, 4 uM ATP, 50 mM HEPES (pH7.5), 10 mM MgCl2, 1 mM EGTA, 2 mM DTT, and 0.01% BRIJ-35.
as §2

Chain of JAK1 protein kinase (P23458 whole entry): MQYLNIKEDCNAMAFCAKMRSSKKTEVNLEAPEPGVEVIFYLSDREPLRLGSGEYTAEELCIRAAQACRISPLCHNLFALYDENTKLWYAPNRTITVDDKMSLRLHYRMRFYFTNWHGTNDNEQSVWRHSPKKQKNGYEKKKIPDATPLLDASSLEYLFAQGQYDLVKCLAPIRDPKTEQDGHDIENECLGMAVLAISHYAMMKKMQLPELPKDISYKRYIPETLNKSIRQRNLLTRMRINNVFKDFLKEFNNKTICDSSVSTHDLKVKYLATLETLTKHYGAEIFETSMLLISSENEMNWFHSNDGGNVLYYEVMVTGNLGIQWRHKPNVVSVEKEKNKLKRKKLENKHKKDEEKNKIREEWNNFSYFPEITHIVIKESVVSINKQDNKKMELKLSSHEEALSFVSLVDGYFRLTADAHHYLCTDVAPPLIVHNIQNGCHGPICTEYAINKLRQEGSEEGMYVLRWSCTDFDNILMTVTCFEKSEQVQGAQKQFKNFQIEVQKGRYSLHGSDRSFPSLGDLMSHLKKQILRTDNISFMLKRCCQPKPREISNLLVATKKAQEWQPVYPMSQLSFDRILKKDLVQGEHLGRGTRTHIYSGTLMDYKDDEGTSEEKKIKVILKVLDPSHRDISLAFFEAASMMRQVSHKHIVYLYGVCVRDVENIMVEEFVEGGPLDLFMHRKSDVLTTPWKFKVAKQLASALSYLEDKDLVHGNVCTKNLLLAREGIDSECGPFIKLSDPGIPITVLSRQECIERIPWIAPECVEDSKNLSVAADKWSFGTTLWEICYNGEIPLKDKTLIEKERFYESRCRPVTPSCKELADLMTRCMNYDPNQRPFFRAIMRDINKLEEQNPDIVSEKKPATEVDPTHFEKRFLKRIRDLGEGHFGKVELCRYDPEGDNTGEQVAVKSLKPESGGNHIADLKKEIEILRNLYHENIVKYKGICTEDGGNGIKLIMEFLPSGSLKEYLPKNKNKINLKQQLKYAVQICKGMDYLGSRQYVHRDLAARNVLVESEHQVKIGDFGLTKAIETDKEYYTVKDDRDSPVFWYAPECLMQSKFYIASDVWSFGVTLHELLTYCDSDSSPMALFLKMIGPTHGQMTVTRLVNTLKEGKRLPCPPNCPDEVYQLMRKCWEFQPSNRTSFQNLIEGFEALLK
Chain of JAK2 protein kinase (O60674 whole entry): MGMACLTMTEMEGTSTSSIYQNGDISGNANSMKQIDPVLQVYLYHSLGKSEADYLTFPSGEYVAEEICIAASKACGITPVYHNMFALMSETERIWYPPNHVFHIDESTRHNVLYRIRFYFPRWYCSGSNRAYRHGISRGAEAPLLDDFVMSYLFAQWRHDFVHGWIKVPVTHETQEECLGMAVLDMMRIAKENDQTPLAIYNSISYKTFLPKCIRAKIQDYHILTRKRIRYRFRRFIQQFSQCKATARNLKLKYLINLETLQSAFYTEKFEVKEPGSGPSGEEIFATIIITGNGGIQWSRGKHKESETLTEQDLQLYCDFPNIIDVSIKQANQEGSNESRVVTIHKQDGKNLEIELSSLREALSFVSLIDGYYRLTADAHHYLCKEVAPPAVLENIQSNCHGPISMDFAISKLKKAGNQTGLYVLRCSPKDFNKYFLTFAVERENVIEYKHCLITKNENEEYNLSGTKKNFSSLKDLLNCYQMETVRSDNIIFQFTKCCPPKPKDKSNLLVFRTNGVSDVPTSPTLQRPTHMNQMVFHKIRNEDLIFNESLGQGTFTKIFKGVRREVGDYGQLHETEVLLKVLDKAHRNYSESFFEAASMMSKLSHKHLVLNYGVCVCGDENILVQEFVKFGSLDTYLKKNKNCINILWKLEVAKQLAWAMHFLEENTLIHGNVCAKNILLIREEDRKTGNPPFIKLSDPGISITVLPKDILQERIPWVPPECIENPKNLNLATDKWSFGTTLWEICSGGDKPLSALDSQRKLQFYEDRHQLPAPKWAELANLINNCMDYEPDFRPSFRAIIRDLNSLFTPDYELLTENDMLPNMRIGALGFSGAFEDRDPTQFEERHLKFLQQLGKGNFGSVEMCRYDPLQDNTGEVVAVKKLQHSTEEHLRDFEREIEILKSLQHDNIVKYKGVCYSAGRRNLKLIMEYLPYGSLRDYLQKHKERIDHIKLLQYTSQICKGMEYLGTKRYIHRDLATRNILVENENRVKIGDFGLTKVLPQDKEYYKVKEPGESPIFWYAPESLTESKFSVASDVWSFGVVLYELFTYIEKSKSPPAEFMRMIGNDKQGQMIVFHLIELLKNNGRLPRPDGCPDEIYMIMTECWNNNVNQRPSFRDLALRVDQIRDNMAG

Compound | IC50 (JAK2 protein kinase) | IC50 (JAK1 protein kinase) | IC50 (JAK3)
CN(c1ncnc2[nH]ccc12)N1CCC[C@H](C(=O)NCC#N)C1 (single isomer, unassigned) [WX09, (S or R)—N-(cyanomethyl-1-[methyl(7H-pyrrolo[2,3-d]pyrimidin-4-yl)amino]piperidyl)-3-formamide] | > 1000 nM | 100 to 1000 nM | > 1000 nM
CN(c1ncnc2[nH]ccc12)N1CCC(C(=O)NCC(F)(F)F)C1 (single isomer, unassigned) [WX32, (R or S)-1-[methyl(7H-pyrrolo[2,3-d]pyrimidin-4-yl)amino]-N-(2,2,2-trifluoroethyl) pyrrolidyl-3-formamide] | < 10 nM | < 10 nM | 10 to 100 nM
CN(c1ncnc2[nH]ccc12)N1CCC(C(=O)NCC(F)(F)F)C1 (single isomer, unassigned) [WX33, (S or R)-1-[methyl(7H-pyrrolo[2,3-d]pyrimidin-4-yl)amino]-N-(2,2,2-trifluoroethyl)pyrrolidyl-3-formamide] | 100 to 1000 nM | 10 to 100 nM | –
CN(c1ncnc2[nH]ccc12)N1CCC[C@@H](C(=O)NCC(F)F)C1 (single isomer, unassigned) [WX49, (3R or 3S)-1-[methyl(7H-pyrrole[2,3-d]pyrimidine-4-)amino]-N-(2,2-difluoroethyl)piperidyl-3-formamide] | < 10 nM | < 10 nM | < 10 nM
CN(c1ncnc2[nH]ccc12)N1CCC[C@H](C(=O)NCC(F)F)C1 (single isomer, unassigned) [WX50, (3S or 3R)-1-[methyl(7H-pyrrole[2,3-d]pyrimidine-4-)amino]-N-(2,2-difluoroethyl)piperidyl-3-formamide] | > 1000 nM | 100 to 1000 nM | 100 to 1000 nM
CN(c1ncnc2[nH]ccc12)N1CCC[C@@H](C(=O)NCC(F)(F)C(F)(F)F)C1 (single isomer, unassigned) [WX51, (3R or 3S)-1-[methyl(7H-pyrrole[2,3-d]pyrimidine-4-)amino]-N-(2,2,3,3,3-pentafluoropropyl)piperidyl-3-formamide] | > 1000 nM | > 1000 nM | > 1000 nM
CN(c1ncnc2[nH]ccc12)N1CCC[C@H](C(=O)NCC(F)(F)C(F)(F)F)C1 (single isomer, unassigned) [WX52, (3S or 3R)-1-[methyl(7H-pyrrole[2,3-d]pyrimidine-4-)amino]-N-(2,2,3,3,3-pentafluoropropyl)piperidyl-3-formamide] | 10 to 100 nM | < 10 nM | 10 to 100 nM
O=C(NCC(F)(F)F)C1CCCN(Nc2ncnc3[nH]ccc23)C1 (stereo not shown) [WX01, 1-((7H-pyrrolo[2,3-d]pyrimidin-4-yl)amino)-N-(2,2,2-trifluoroethyl)piperidyl-3-formamide] | 10 to 100 nM | < 10 nM | 10 to 100 nM
CN(CC(F)(F)F)C(=O)C1CCCN(N(C)c2ncnc3[nH]ccc23)C1 (stereo not shown) [WX02, N-methyl-1-(methyl(7H-pyrrolo[2,3-d]pyrimidin-4-yl)amino)-(2,2,2-trifluoroethyl)piperidyl-3-formamide] | 100 to 1000 nM | 10 to 100 nM | 10 to 100 nM
N#CCNC(=O)C1CCCN(Nc2ncnc3[nH]ccc23)C1 (stereo not shown) [WX03, N-(cyanomethyl)-1-(7H-pyrrolo[2,3-d]pyrimidin-4-yl-amino)piperidyl-3-formamide] | 10 to 100 nM | < 10 nM | 10 to 100 nM
CCOC(=O)C1CCCN(N(C)c2ncnc3[nH]ccc23)C1 (stereo not shown) [WX10, Ethyl 1-[methyl(7H-pyrrolo[2,3-d]pyrimidin-4-yl)amino]piperidyl-3-carboxylate] | 100 to 1000 nM | 10 to 100 nM | 10 to 100 nM
CN(c1ncnc2[nH]ccc12)N1CCCC(C(N)=O)C1 (stereo not shown) [WX11] | 100 to 1000 nM | 100 to 1000 nM | 100 to 1000 nM
CN(c1ncnc2[nH]ccc12)N1CCCC(NC(=O)CC#N)C1 (stereo not shown) [WX12] | > 1000 nM | 100 to 1000 nM | 100 to 1000 nM
CN(c1ncnc2[nH]ccc12)N1CCCC(NC(=O)CC(F)(F)F)C1 (stereo not shown) [WX13, 3,3,3-trifluoroethyl-N-(1-(methyl(7H-pyrrolo[2,3-d]pyrimidin-4-yl)amino)piperidyl-3-)propylcarboxamide] | > 1000 nM | 100 to 1000 nM | 100 to 1000 nM
CN(c1ccnc2[nH]ccc12)N1CCCC(C(=O)NCC(F)(F)F)C1 (stereo not shown) [WX15, N-(2,2,2-trifluoroethyl)-1-(methyl(1H-pyrrole[2,3-d]pyridin-4-yl)amino)piperidyl-3-formamide] | 100 to 1000 nM | 10 to 100 nM | 100 to 1000 nM
CN(c1ncnc2[nH]ccc12)N1CCCC(C(=O)NCCC#N)C1 (stereo not shown) [WX16, N-(cyanoethyl)-1-(methyl(1H-pyrrole[2,3-d]pyridyl-4-)amino)piperidyl-3-formamide] | – | 10 to 100 nM | 100 to 1000 nM
CN(c1ncnc2[nH]ccc12)N1CCCC(CC(=O)NCC(F)(F)F)C1 (stereo not shown) [WX17] | > 1000 nM | 100 to 1000 nM | 100 to 1000 nM
CN(c1ncnc2[nH]ccc12)N1CCCC(CC(=O)NCC#N)C1 (stereo not shown) [WX18] | > 1000 nM | 100 to 1000 nM | 100 to 1000 nM
CN(c1ncnc2[nH]ccc12)N1CCCC(CNC(=O)CC(F)(F)F)C1 (stereo not shown) [WX19, 3,3,3-trifluoro-N-((1-(methyl(7H-pyrrole[2,3-d]pyrimidine-4-)amino)piperidyl-3-)methyl)propionamide] | > 1000 nM | 100 to 1000 nM | 100 to 1000 nM
CN(c1ncnc2[nH]ccc12)N1CCC(C(=O)NCC#N)CC1 [WX20, N-(cyanomethyl)-1-(methyl(7H-pyrrolo[2,3-d]pyrimidin-4-yl)amino)piperidyl-4-formamide] | 100 to 1000 nM | 10 to 100 nM | 10 to 100 nM
N#CCNC(=O)C1CCN(Nc2ncnc3[nH]ccc23)CC1 [WX21] | > 1000 nM | 10 to 100 nM | 100 to 1000 nM
O=C(NCC(F)(F)F)C1CCN(Nc2ncnc3[nH]ccc23)CC1 [WX22] | > 1000 nM | 100 to 1000 nM | 100 to 1000 nM
CN(c1ncnc2[nH]ccc12)N1CCC(C(=O)NCC(F)(F)F)CC1 [WX23] | 100 to 1000 nM | 10 to 100 nM | 10 to 100 nM
CN(c1ncnc2[nH]ccc12)N1CCC(NC(=O)CC(F)(F)F)CC1 [WX24] | 100 to 1000 nM | 10 to 100 nM | 100 to 1000 nM
CN(c1ncnc2[nH]ccc12)N1CCC(NC(=O)CC#N)CC1 [WX25, 2-cyano-N-(1-(methyl(7H-pyrrolo[2,3-d]pyrimidin-4-yl)amino)piperidin-4-yl)acetamide] | 100 to 1000 nM | 10 to 100 nM | 100 to 1000 nM
CC1CCC(C(=O)NCC#N)CN1N(C)c1ncnc2[nH]ccc12 (stereo not shown) [WX26, N-(cyanomethyl)-6-methyl-1-[methyl(7H-pyrrolo[2,3-d]pyrimidin-4-yl)amino]piperidyl-3-formamide] | > 1000 nM | 100 to 1000 nM | 100 to 1000 nM
CC1CCC(C(=O)NCC(F)(F)F)CN1N(C)c1ncnc2[nH]ccc12 (stereo not shown) [WX27, 6-methyl-1-(methyl(7H-pyrrole[2,3-d]pyrimidin-4-yl)amino)-N-(2,2,2-trifluoroethyl)piperidyl-3-formamide] | > 1000 nM | 100 to 1000 nM | 100 to 1000 nM
CC1CCC2CN1N(c1ncnc3[nH]ccc13)C2=O (stereo not shown) [WX28, 2-methyl-7-(7H-pyrrolo[2,3-d]pyrimidin-4-yl)-1,7-diazabicyclo[3.2.1]octan-6-one] | > 1000 nM | > 1000 nM | > 1000 nM
